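Briefly, cells in 96-well plates were exposed to five compound concentrations for 48 h, and endpoints were estimated by linear interpolation. At the GI50, growth is halved.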 Calls of active or inactive are those of the source. No stated cut-off is given here; in the data, active = GI50 up to about 1.1 µM and inactive = higher.
Assays:
Assay in all cases: NCI-60 cell line screen, 48 h
A498 = system: A498
ACHN = system: ACHN
HCC 2998 = system: HCC 2998
HT-29 = system: HT-29
K562 = system: K562
KM12 = system: KM12
MOLT-4 = system: MOLT-4
NCI-H226 = system: NCI-H226
NCI-H23 = system: NCI-H23
SK-MEL-2 = system: SK-MEL-2
SK-OV-3 = system: SK-OV-3
SN12C = system: SN12C
SNB-19 = system: SNB-19
UACC-257 = system: UACC-257
CAKI-1 = system: CAKI-1

**Q.** `C#CCCCCC#CC1CCCC1C1=CC(=O)c2ccccc21` (stereo unspecified) was tested. Which GI50 (A498) did it give?
**A.** 15 µM (inactive)

**Q.** What about the GI50 (ACHN) of the same molecule?
**A.** 6.9 µM (inactive)

**Q.** What about the GI50 (HCC 2998) of the same molecule?
**A.** 12.6 µM (inactive)

**Q.** And the GI50 (HT-29)?
**A.** 4.5 µM (inactive)

**Q.** And the GI50 (K562)?
**A.** 2.4 µM (inactive)

**Q.** What about the GI50 (KM12) of the same molecule?
**A.** 6.27 µM (inactive)

**Q.** What about the GI50 (MOLT-4) of the same molecule?
**A.** 2.25 µM (inactive)

**Q.** What about the GI50 (NCI-H226) of the same molecule?
**A.** 14.5 µM (inactive)

**Q.** What about the GI50 (NCI-H23) of the same molecule?
**A.** 10.6 µM (inactive)

**Q.** What about the GI50 (SK-MEL-2) of the same molecule?
**A.** 11.2 µM (inactive)

**Q.** What about the GI50 (SK-OV-3) of the same molecule?
**A.** 15.3 µM (inactive)

**Q.** And the GI50 (SN12C)?
**A.** 6.38 µM (inactive)

**Q.** What about the GI50 (SNB-19) of the same molecule?
**A.** 15.5 µM (inactive)

**Q.** And the GI50 (UACC-257)?
**A.** 11.2 µM (inactive)

**Q.** What does the source list for `Cc1ccccc1NC(=O)CSc1nnc(-c2ccc(/N=C\c3ccc(Cl)cc3)cc2)o1`?
**A.** GI50 (ACHN): > 100 µM (inactive); GI50 (HT-29): > 100 µM (inactive); GI50 (K562): > 100 µM (inactive); GI50 (KM12): > 100 µM (inactive); GI50 (MOLT-4): > 100 µM (inactive); GI50 (NCI-H226): > 100 µM (inactive); GI50 (NCI-H23): > 100 µM (inactive); GI50 (SK-MEL-2): > 100 µM (inactive); GI50 (SK-OV-3): > 100 µM (inactive); GI50 (SN12C): > 100 µM (inactive); GI50 (SNB-19): > 100 µM (inactive); GI50 (UACC-257): > 100 µM (inactive)

**Q.** With `CC(=O)Nc1ccc(C(=O)NN2C(=O)C(Cl)C2c2cc(Br)cc(Br)c2O)cc1` (stereo unspecified) as the molecule, how does the GI50 (A498) read?
**A.** > 100 µM (inactive)

**Q.** And the GI50 (ACHN)?
**A.** > 100 µM (inactive)

**Q.** What about the GI50 (CAKI-1) of the same molecule?
**A.** > 100 µM (inactive)

**Q.** What about the GI50 (HCC 2998) of the same molecule?
**A.** > 100 µM (inactive)

**Q.** What about the GI50 (K562) of the same molecule?
**A.** > 100 µM (inactive)

**Q.** And the GI50 (KM12)?
**A.** > 100 µM (inactive)

**Q.** And the GI50 (MOLT-4)?
**A.** > 100 µM (inactive)

**Q.** What about the GI50 (NCI-H226) of the same molecule?
**A.** > 100 µM (inactive)

**Q.** And the GI50 (NCI-H23)?
**A.** > 100 µM (inactive)

**Q.** What about the GI50 (SK-MEL-2) of the same molecule?
**A.** > 100 µM (inactive)

**Q.** What about the GI50 (SK-OV-3) of the same molecule?
**A.** > 100 µM (inactive)

**Q.** And the GI50 (SN12C)?
**A.** > 100 µM (inactive)

**Q.** What about the GI50 (SNB-19) of the same molecule?
**A.** > 100 µM (inactive)

**Q.** And the GI50 (UACC-257)?
**A.** > 100 µM (inactive)

**Q.** What does the source list for `CCCCc1c2c(nc3c1CCCC3=O)CCCC2`?
**A.** GI50 (ACHN): > 100 µM (inactive); GI50 (HCC 2998): > 100 µM (inactive); GI50 (HT-29): > 100 µM (inactive); GI50 (K562): > 100 µM (inactive); GI50 (KM12): > 100 µM (inactive); GI50 (MOLT-4): > 100 µM (inactive); GI50 (NCI-H226): 18.3 µM (inactive); GI50 (NCI-H23): > 100 µM (inactive); GI50 (SK-OV-3): > 100 µM (inactive); GI50 (SN12C): > 100 µM (inactive); GI50 (SNB-19): > 100 µM (inactive); GI50 (UACC-257): > 10 µM (inactive)

**Q.** Which GI50 (ACHN) does the source give for `CCOC(=O)C(N=C(c1ccccc1)c1ccccc1)N(C(=O)OC(C)(C)C)C(=O)OC(C)(C)C` (stereo unspecified) here?
**A.** > 100 µM (inactive)

**Q.** What about the GI50 (CAKI-1) of the same molecule?
**A.** > 100 µM (inactive)

**Q.** And the GI50 (HCC 2998)?
**A.** > 100 µM (inactive)

**Q.** What about the GI50 (HT-29) of the same molecule?
**A.** > 100 µM (inactive)

**Q.** And the GI50 (K562)?
**A.** > 100 µM (inactive)

**Q.** And the GI50 (KM12)?
**A.** > 100 µM (inactive)

**Q.** What about the GI50 (MOLT-4) of the same molecule?
**A.** > 100 µM (inactive)

**Q.** And the GI50 (NCI-H226)?
**A.** > 100 µM (inactive)

**Q.** What about the GI50 (NCI-H23) of the same molecule?
**A.** > 100 µM (inactive)

**Q.** What about the GI50 (SK-MEL-2) of the same molecule?
**A.** > 100 µM (inactive)

**Q.** And the GI50 (SK-OV-3)?
**A.** > 100 µM (inactive)

**Q.** And the GI50 (SN12C)?
**A.** > 100 µM (inactive)

**Q.** And the GI50 (SNB-19)?
**A.** > 100 µM (inactive)

**Q.** What about the GI50 (UACC-257) of the same molecule?
**A.** > 100 µM (inactive)

**Q.** With `COC(c1cccc(C(O)(C(F)(F)F)C(F)(F)F)c1)(C(F)(F)F)C(F)(F)F` as the molecule, how does the GI50 (A498) read?
**A.** 20.1 µM (inactive)

**Q.** What about the GI50 (ACHN) of the same molecule?
**A.** 15.8 µM (inactive)

**Q.** What about the GI50 (CAKI-1) of the same molecule?
**A.** 24.4 µM (inactive)

**Q.** What about the GI50 (HCC 2998) of the same molecule?
**A.** 8.79 µM (inactive)

**Q.** And the GI50 (HT-29)?
**A.** 17.5 µM (inactive)

**Q.** And the GI50 (KM12)?
**A.** 19.5 µM (inactive)

**Q.** And the GI50 (MOLT-4)?
**A.** 22 µM (inactive)

**Q.** And the GI50 (NCI-H226)?
**A.** 18.2 µM (inactive)

**Q.** And the GI50 (NCI-H23)?
**A.** 19.7 µM (inactive)

**Q.** And the GI50 (SK-MEL-2)?
**A.** 18.2 µM (inactive)

**Q.** What about the GI50 (SK-OV-3) of the same molecule?
**A.** 20.1 µM (inactive)

**Q.** What about the GI50 (SN12C) of the same molecule?
**A.** 18.3 µM (inactive)

**Q.** What about the GI50 (SNB-19) of the same molecule?
**A.** 19.4 µM (inactive)

**Q.** And the GI50 (UACC-257)?
**A.** 27.1 µM (inactive)

**Q.** How did the GI50 (ACHN) turn out when `O=C1C(c2ccccc2)=[N+]([O-])c2cc([N+](=O)[O-])c(/C(Cl)=C/c3ccccc3)cc21` was run?
**A.** 24.5 µM (inactive)

**Q.** And the GI50 (HT-29)?
**A.** 22.3 µM (inactive)

**Q.** And the GI50 (K562)?
**A.** 13.8 µM (inactive)

**Q.** And the GI50 (KM12)?
**A.** 22.8 µM (inactive)

**Q.** What about the GI50 (MOLT-4) of the same molecule?
**A.** 13.9 µM (inactive)

**Q.** And the GI50 (NCI-H226)?
**A.** 31.2 µM (inactive)

**Q.** What about the GI50 (NCI-H23) of the same molecule?
**A.** 22.7 µM (inactive)

**Q.** What about the GI50 (SK-OV-3) of the same molecule?
**A.** > 100 µM (inactive)

**Q.** What about the GI50 (SNB-19) of the same molecule?
**A.** 31.3 µM (inactive)

**Q.** How did the GI50 (A498) turn out when `Cc1cccc(C)c1NC(=O)CCC(=O)NC(N)=S` was run?
**A.** > 100 µM (inactive)

**Q.** And the GI50 (ACHN)?
**A.** > 100 µM (inactive)

**Q.** What about the GI50 (CAKI-1) of the same molecule?
**A.** > 100 µM (inactive)

**Q.** What about the GI50 (HCC 2998) of the same molecule?
**A.** > 100 µM (inactive)

**Q.** And the GI50 (HT-29)?
**A.** > 100 µM (inactive)

**Q.** And the GI50 (K562)?
**A.** > 100 µM (inactive)

**Q.** What about the GI50 (KM12) of the same molecule?
**A.** > 100 µM (inactive)

**Q.** And the GI50 (MOLT-4)?
**A.** > 100 µM (inactive)

**Q.** What about the GI50 (NCI-H226) of the same molecule?
**A.** > 100 µM (inactive)

**Q.** What about the GI50 (NCI-H23) of the same molecule?
**A.** > 100 µM (inactive)

**Q.** And the GI50 (SK-OV-3)?
**A.** > 100 µM (inactive)

**Q.** And the GI50 (SN12C)?
**A.** > 100 µM (inactive)

**Q.** What about the GI50 (SNB-19) of the same molecule?
**A.** > 100 µM (inactive)

**Q.** And the GI50 (UACC-257)?
**A.** > 100 µM (inactive)

**Q.** With `C=C(C(=C)P(=S)(c1ccccc1)c1ccccc1)P(=S)(c1ccccc1)c1ccccc1` as the molecule, how does the GI50 (A498) read?
**A.** > 100 µM (inactive)

**Q.** And the GI50 (ACHN)?
**A.** > 100 µM (inactive)

**Q.** And the GI50 (CAKI-1)?
**A.** > 100 µM (inactive)

**Q.** What about the GI50 (HCC 2998) of the same molecule?
**A.** > 100 µM (inactive)

**Q.** And the GI50 (HT-29)?
**A.** > 100 µM (inactive)

**Q.** And the GI50 (K562)?
**A.** > 100 µM (inactive)

**Q.** What about the GI50 (KM12) of the same molecule?
**A.** > 100 µM (inactive)

**Q.** And the GI50 (MOLT-4)?
**A.** > 100 µM (inactive)

**Q.** And the GI50 (NCI-H23)?
**A.** > 100 µM (inactive)

**Q.** And the GI50 (SK-MEL-2)?
**A.** > 100 µM (inactive)

**Q.** And the GI50 (SK-OV-3)?
**A.** > 100 µM (inactive)

**Q.** What about the GI50 (SN12C) of the same molecule?
**A.** > 100 µM (inactive)

**Q.** What about the GI50 (SNB-19) of the same molecule?
**A.** > 100 µM (inactive)

**Q.** And the GI50 (UACC-257)?
**A.** > 100 µM (inactive)

**Q.** Which GI50 (A498) does the source give for `Cc1cc(NS(=O)(=O)c2ccc(NC(=O)c3cccc4cc5ccccc5nc34)cc2)no1` here?
**A.** 16.7 µM (inactive)

**Q.** What about the GI50 (ACHN) of the same molecule?
**A.** 11.1 µM (inactive)

**Q.** And the GI50 (CAKI-1)?
**A.** 21.9 µM (inactive)

**Q.** What about the GI50 (HT-29) of the same molecule?
**A.** 30 µM (inactive)

**Q.** And the GI50 (K562)?
**A.** 18.1 µM (inactive)

**Q.** What about the GI50 (KM12) of the same molecule?
**A.** 16.4 µM (inactive)

**Q.** And the GI50 (MOLT-4)?
**A.** 17.1 µM (inactive)

**Q.** And the GI50 (NCI-H226)?
**A.** 0.191 µM (active)

**Q.** What about the GI50 (NCI-H23) of the same molecule?
**A.** 17.2 µM (inactive)

**Q.** What about the GI50 (SK-MEL-2) of the same molecule?
**A.** 18.7 µM (inactive)

**Q.** What about the GI50 (SK-OV-3) of the same molecule?
**A.** 39.6 µM (inactive)

**Q.** And the GI50 (SN12C)?
**A.** 18 µM (inactive)

**Q.** What about the GI50 (SNB-19) of the same molecule?
**A.** 6.46 µM (inactive)

**Q.** And the GI50 (UACC-257)?
**A.** 27.4 µM (inactive)

Reference: ChEMBL document CHEMBL1201862, “PubChem BioAssay data set” (2004)
